Experimental data taken from patent US20200218874A1, “A LABEL-FREE METHOD AND SYSTEM FOR MEASURING DRUG RESPONSE KINETICS OF THREE-DIMENSIONAL CELLULAR STRUCTURES” (AGENCY FOR SCIENCE, TECHNOLOGY AND RESEARCH, priority 2017, published 2020).
“Also recorded” adds a separate entry of the source.

Assays:
[1] = test system: spheroids derived from a head and neck cancer patient; experiment: Micrograph morphology of drug-treated patient-derived spheroids; assay type: cell-based, human; settings: spheroids approximately 500 microns
Excerpt: All three patient-derived spheroids are of similar sizes of approximately 500 microns.
On the other hand, morphological-based methods primarily use the size/volume or shape of the spheroids.

[2] = test system: HN137M PDX; experiment: In vivo treatment of HN137M PDX-bearing mice; settings: male mice n=5, 2 mg kg^−1 i.p. once every 2 days
Excerpt: (§1) Generation and passaging of PDXs. Tumour samples were obtained from patients post-surgery after obtaining informed patient consent in accordance to SingHealth Centralized Institutional Review Board (CIRB: 2014/2093/B). Tumours were minced into 1 mm^3 fragments and suspended in a mixture of 5% Matrigel (Corning, cat. no. 354234) in DMEM/F12 (Thermo Fisher, cat. no. 10565-018). The tumour fragment mixtures were then implanted subcutaneously into the left and right flanks of 5-7 weeks old NSG (NOD.Cg-Prkdcscid II2rgtm1Wjl/SzJ) (Jackson Laboratory, stock no. 005557) mice, using 18-gauge needles. Tumours were excised and passaged when they reached 1.5 cm^3. […]
(§2) Gefitinib (Iressa) was prepared by dissolving a 250 mg clinical grade tablet (AstraZeneca) in sterile water containing 0.05% Tween-80 (Sigma-Aldrich, cat. no. P4780) to a concentration of 10 mg/mL and administered at a dosage of 25 mg/kg daily via oral gavage. […] The length and width of tumours were measured by caliper once every 2 days. […] The weight of tumour was not directly measured, but were estimated using volume where the density of tissue was assumed to be 1 g/cm^3. The ratio of the change in treated tumour volume (ΔT) to the average change in control tumour volume (ΔT/Average ΔC) at each time point was calculated as follows: […]

[3] = test system: HN137P PDX; experiment: In vivo treatment of HN137P PDX-bearing mice; settings: male mice n=5, 2 mg kg^−1 i.p. once every 2 days
Excerpt: as §1, §2

[4] = test system: patient-derived tumour spheroids (head and neck cancer patient); experiment: Label-free image-based drug response (LaFOS) of 3D tumour spheroids over time; assay type: cell-based, human; settings: for response of tumour spheroids over time (LaFOS time-course): 24, 48 and 72 hours after treatment, 1 μM
Description: The examples used in this disclosure were generated by seeding 5000 cells into each well of Corning® 384 Well Black Clear Round Bottom Ultra-Low Attachment Spheroid Microplates. The assay plates were incubated at 37° C., 5% CO2 over 3 days to allow formation of the tumour spheroids. At 96 hours, the spheroids were imaged (labelled as “untreated” in the study) using a confocal microscope at 20× (Perkin Elmer Opera Phenix High Content Screening system) and then treated at 1 μM of the compounds (in DMSO). In total, 1,231 spheroids were generated and treated in duplicates at 96 hours with small molecule and kinase inhibitors from the Selleck Anti-cancer library and Selleck Kinase Inhibitor chemical library. The drug treated spheroids were imaged subsequently at 24, 48 and 72 hours after treatment.
Bright-field images of the 1,231 spheroids acquired at different time-points and z-planes were computationally segmented into proliferating (red), quiescent (green) and necrotic (yellow) zones through a method referred to as “Spheroid Peeling” (FIG. 5). Other imaging methods can also be used—Phase contrast imaging, electron microscopy, wide-field, dark-field, super-resolution microscopy, and many more.
Briefly, “Spheroid Peeling” involves repeatedly segmenting the spheroid image from the periphery to the core zone. The entire spheroid was first segmented as an object (hereby referred to as spheroid object) and cropped from the original well image (FIG. 6). An “inner core” was then identified from the spheroid object, hereby referred to as quiescent object. The proliferating zone was obtained by masking the quiescent object from the spheroid object. Similarly, the necrotic zone was identified as the “inner core” of the quiescent object, and the quiescent zone was obtained by masking the necrotic zone from the quiescent object. A number of image features were quantified from each of the proliferating, quiescent and necrotic zones, resulting in a total of 504 image descriptors for each spheroid. The “spheroid peeling” algorithm can be written in a number of languages or image analysis tool, such as Cell Profiler, MATLAB or ImageJ.
FIG. 19 is a flow diagram 700 showing a machine learning based training method in accordance with the present disclosure for generating a computational model (or learning model) of drug response in spheroids. Two sets of spheroids were generated for imaging and for viability measurement, respectively. The two sets of spheroids were treated with the same drugs. For feasibility testing, a training set of 1,231 spheroids 1902 was generated. At 72 hours after drug treatment, acquisition 1904 of bright-field images 1906 was obtained. As data preprocessing 708, “Spheroid Peeling” 1910 was applied to obtain, through image feature quantification 1912, 504 image descriptors from the Proliferating, Quiescent and Necrotic zones of each tumour spheroid, resulting in over ˜600K image descriptors 1916 in total.
The learning process generated a computational model 1922 that can be perceived as a complex multi-feature numerical quantification of the drug response of the spheroids. Generating the computational model includes one or more of training the computational model or determining parameters of the computational model. […]

[5] = test system: HN120M PDX; experiment: In vivo treatment of HN120M PDX-bearing mice; settings: mice n=6, 5 mg kg^−1 i.p. once every 2 days
Excerpt: as §1, §2

N.N.[Cl][Pt][Cl] [Cisplatin]
morphological structure of tumour spheroid ([1]; high concentration): enlarged core zone
morphological structure of tumour spheroid ([1]; low concentration): resembled that of the untreated spheroid

COCCn1c2c([n+](Cc3cnccn3)c1C)C(=O)c1ccccc1C2=O [YM155]
anti-tumour effect in PDX (tumour volume vs vehicle) [2]: significant anti-tumour effect
anti-tumour effect in PDX (tumour volume vs vehicle) [3]: did not display significant sensitivity

COc1cc(N2CCC(N3CCN(C)CC3)CC2)ccc1Nc1ncc(Cl)c(Nc2ccccc2S(=O)(=O)C(C)C)n1 [NVP-TAE684]
response of tumour spheroids over time (LaFOS time-course) [4]: increasing efficacy
inhibition rate (4-dimensional drug response of tumor spheroids) ([4]; over the course of 72 hours, duplicate spheroids (R1 and R2), treated at 1 μM): 60%

COc1ncc(-c2ccc3nccc(-c4ccnnc4)c3c2)cc1NS(=O)(=O)c1ccc(F)cc1F [GSK2126458]
response of tumour spheroids over time (LaFOS time-course) [4]: increasing efficacy
inhibition at 1 µM ([4]; Homo sapiens, over the course of 72 hours, duplicate spheroids (R1 and R2), treated at 1 μM, read-out: inhibition rate (4-dimensional drug response of tumor spheroids)): 80%

Cn1c(=O)n(-c2ccc(C(C)(C)C#N)cc2)c2c3cc(-c4cnc5ccccc5c4)ccc3ncc21 [BEZ235]
response of tumour spheroids over time (LaFOS time-course) [4]: remain unchanged; also recorded: unresponsive

CN1CC[C@H](c2c(O)cc(O)c3c(=O)cc(-c4ccccc4Cl)oc23)[C@H](O)C1 [Flavopiridol]
efficacy in in vivo model (PDX) [5]: already validated in in vivo models
